The text below walks through data of paper PMC6382874, “Succinylation-dependent mitochondrial translocation of PKM2 promotes cell survival in response to nutritional stress” (Cell Death & Disease, 2019).

SMILES strings stand for the structures. Like-named read-outs stand apart in the source and are kept apart here.

One assay concerns the target T1, PKL (Homo sapiens, UniProt P30613).
T1 construct: purchased Sino Biological Inc
Description: fluorescent PK-LDH coupled assay, PKL. The format is biochemical. As to conditions: PK-LDH coupled assay; read-out: IC50 (PKL). Here is the method: (§1) Human cDNA for PKM2, PKM1, and VDAC3 were separately cloned into a pET28a (+) and pGEX-4T-1 vector with an N-terminal His-tag and N-terminal GST-tag and purified from the Escherichia coli strain BL21 (Invitrogen) using Ni–agarose beads and GST agarose beads (Qiagen) as described previously. PKL was purchased from Sino Biological Inc. in China.
Pyruvate kinase activity was measured with a fluorescent pyruvate kinase–lactate dehydrogenase coupled assay as described previously. All compounds were tested in a kinetic mode by coupling the generation of pyruvate by pyruvate kinase to the depletion of NADH through lactate dehydrogenase. For PKM2, 40 μL of buffer (50 mM Tris–HCl, pH 7.5, 10 mM KCl, 5 mM MgCl2), 1 μL of compound and 5 μL of enzyme solution were dispensed into Corning black solid 96-well plates and incubated for 15 min. Totally, 55 μL of substrate mix (final concentration, 0.5 mM PEP, 4.0 mM ADP, 0.12 mM NADH, 0.25 mM FBP, and 1 unit LDH) were then added, and the plates were placed in a FlexStation3 (Molecular Devices), followed by determination of NADH fluorescence at 30 s exposure intervals for 3–6 min. Data were collected on a FlexStation3.

The subject of a further assay is MCF7 cells. In words: cell viability test, MCF7. The format is cell-based. As to conditions: cell viability, 48 h, read-out: IC50 (MCF7). On the procedure: (§2) We assessed the anti-tumor effects of compound 8 by evaluation of cancer cell viability. Compound 8 reduced cell viability with an IC50 of about 5 µM in MTT reduction assays in HCT116, MCF7, and H1299 cells (Table 2). […] To determine whether cancer cell death brought about by compound 8 is PKM2 dependent, PKM2 was knocked down in HCT116 cells using two different shRNA sequences that specifically targeted exon 10 without interfering with PKM1 expression. Compound 8 is an inhibitor which causes a loss of function of PKM2. If PKM2 is a specially targeted by compound 8, its knockdown should render cells more vulnerable to compound 8-mediated PKM2 inhibition since shRNA and compound 8 work synergistically by reducing the intracellular drug target concentration.
(§3) Cells were seeded in 96-well plates at 5000 cells/well in DMEM media overnight. Cells were treated with different concentrations of test compound for 48 h at 37 °C in 5% CO2. Cell viability was assayed with the MTS assay (Promega) and trypan blue staining according to the manufacturer’s instructions.

The next assay deals with H1299 cells. In words: cell viability test, H1299. It counts as cell-based. As to conditions: cell viability, 48 h, read-out: IC50 (H1299). On the procedure: as §2, §3
For another assay, the target named is T2, PKM2-VDAC3 interaction (Homo sapiens, UniProt P14618).
T2 construct: expressed in transfected cells; host or cells: HCT116
Description: PKM2-VDAC3 interaction, stag pull down in HCT116 cells. The format is cell-based. As to conditions: 20 µM, 8 h. On the procedure: Fig. 6 Compound 8 blocks PKM2 mitochondrial translocation under nutritional stress and inhibits tumor growth in vivo. a Compound 8 blocks glucose starvation induced PKM2 mitochondrial translocation. Isolation of mitochondria and immunoblot of PKM2, tubulin and Tom 40 were carried out with or without compound 8 treatment. b Compound 8 disrupts interaction of PKM2 and VDAC3. HCT116 cells were transfected with HA-tagged PKM2, cells were harvested and subjected to stag pull down after 8 h 20 µM compound 8 treatment. c Compound 8 induces VDAC3 for degradation. cells were harvested and evaluated VDAC3 protein levels after 8 h 10 or 20 µM compound 8 treatment. d, e Compound 8 caused a decrease in the rate of NADH oxidation. After 8 h of treatment with 20 µM compound 8, HCT116 cells mitochondria were isolated for NADH oxidation assays. NAD/NADH ratios in HCT116 cell lysates were evaluated by LC–MS. f Compound 8 inhibited ATP production in HCT116 cells. g The tumor volume (n = 7) of HCT116 xenografts from mice with intraperitoneal injection of compound 8 and vehicle control
About 2.5 mg whole cellular extracts were prepared in 700 μl RIPA buffer (50 mM Tris-HCl, pH 8.0, 150 mM NaCl, 1.5 mM MgCl2, 0.1% sodium dodecyl sulfate (SDS), 0.5% deoxycholate, 0.5% NP-40, 1 mM phenylmethylsulfonyl fluoride (PMSF), 1× protease inhibitor cocktail (Roche)). […]

A further assay deals with HCT116 xenografts. Description: HCT116 xenograft tumor growth in nude mice. The following applies: 15mg/kg, intraperitoneal, once every two days. It counts as in vivo, nude mice (BALB/C). On the procedure:
All animal procedures were performed in accordance with guidelines approved by the Animal Experimentation Ethics Committee of Peking University. Female nude mice (BALB/C, 4–6 weeks old) were injected with 2.0 × 10^6 HCT116 cells subcutaneously in the armpit. Approximately, 10 days later, pairs of mice (N = 7) were injected with compound 8 or vehicle control. Intraperitoneal injection was performed in the mouse. The animals were injected once every two days. Tumor measurements were performed once every 2 days. Tumor volume was calculated using the following equation: V = L(S2)π/6, where L is the longer and S is the shorter of the two tumor dimensions.

A further assay addresses PKM2 (Homo sapiens, UniProt P14618). In words: binding to PKM2 measured by MicroCal iTC200. Set-up: His-tag (N); made in house; host or cells: Escherichia coli BL21.
Excerpt: We tested modifications of target compounds for PKM2 inhibitory activity.
Fig. 5 Identification and characterization of PKM2 inhibitors. a PKM2 inhibitors. […] It prints only the data set name 'Data: pkm2_NDH', so the substance label is left empty. / Panel b, N: small print, 0.941 ±0.0712, digits uncertain / Panel b, K: small print, 8.63E4 ±3.63E4, the digits 8, 6 and 3 are uncertain / Panel b, ΔH: small print, -5962 ±675.9, the digits 5, 9 and 6 are uncertain / Panel b, ΔS: small print, 2.59, the digits 5 and 9 are uncertain
as §1

Chain of PKM2 (P14618 whole entry): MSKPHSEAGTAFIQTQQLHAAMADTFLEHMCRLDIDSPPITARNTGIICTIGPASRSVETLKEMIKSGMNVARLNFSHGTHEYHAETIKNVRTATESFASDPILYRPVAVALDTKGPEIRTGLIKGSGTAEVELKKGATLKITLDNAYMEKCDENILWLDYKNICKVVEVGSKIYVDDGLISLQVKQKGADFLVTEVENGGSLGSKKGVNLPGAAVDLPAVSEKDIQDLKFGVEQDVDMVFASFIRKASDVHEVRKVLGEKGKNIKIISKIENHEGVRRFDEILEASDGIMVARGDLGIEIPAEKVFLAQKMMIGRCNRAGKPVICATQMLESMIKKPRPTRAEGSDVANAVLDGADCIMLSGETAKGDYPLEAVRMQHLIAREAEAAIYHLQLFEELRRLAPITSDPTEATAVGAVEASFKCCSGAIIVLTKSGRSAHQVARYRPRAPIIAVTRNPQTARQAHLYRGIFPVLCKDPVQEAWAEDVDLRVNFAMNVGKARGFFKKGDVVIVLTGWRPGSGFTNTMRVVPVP
T2 sequence (P14618 whole entry): as above
T1 sequence (P30613 1-543 isoform P30613-2, species assumed): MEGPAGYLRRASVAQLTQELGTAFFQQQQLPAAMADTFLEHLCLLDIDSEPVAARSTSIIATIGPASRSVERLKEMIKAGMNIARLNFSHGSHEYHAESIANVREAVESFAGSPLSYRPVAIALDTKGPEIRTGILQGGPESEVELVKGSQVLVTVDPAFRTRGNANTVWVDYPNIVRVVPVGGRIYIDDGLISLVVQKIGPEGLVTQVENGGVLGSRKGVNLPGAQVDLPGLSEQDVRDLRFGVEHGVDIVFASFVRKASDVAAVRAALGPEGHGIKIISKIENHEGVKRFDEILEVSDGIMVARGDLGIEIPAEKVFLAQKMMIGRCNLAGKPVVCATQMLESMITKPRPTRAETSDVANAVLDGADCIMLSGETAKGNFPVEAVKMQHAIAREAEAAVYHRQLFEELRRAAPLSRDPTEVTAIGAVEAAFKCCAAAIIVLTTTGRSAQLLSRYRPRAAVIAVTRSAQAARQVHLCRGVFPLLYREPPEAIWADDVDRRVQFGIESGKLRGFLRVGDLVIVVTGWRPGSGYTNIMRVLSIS

For orientation: IC50 means the concentration that gives 50% inhibition. The term Kd denotes a measure of binding affinity in units of concentration. High values mean weaker binding, low ones tighter binding. As to `CCCN(CCC)P(N)(=O)OCC1=CC(=O)c2ccccc2C1=O` (centres unmarked) [Compound 8], the IC50 at PKL was 20.4 ± 3.54 µM; in the assay on MCF7 cells (Homo sapiens, MCF7, 48 h) it was approximately 5 µM; in the assay with MCF7 cells, 5.4 ± 1.14 µM; in the assay with H1299 cells (Homo sapiens, NCI-H1299, 48 h) it was approximately 5 µM; with H1299 cells, 4.75 ± 1.15 µM. In addition, the “interaction of PKM2 with VDAC3” value on PKM2-VDAC3 interaction is reported as “abolished its interaction with VDAC3”. For the same molecule, the “colon cancer xenograft growth (tumor volume)” value with HCT116 xenografts is recorded as “significantly reduced”. Further, the Kd at PKM2 was approximately 11 µM.
